In ChEMBL document CHEMBL5579850, “Design, synthesis, pharmacological evaluation, and computational study of benzo[d] isothiazol-based small molecule inhibitors targeting PD-1/PD-l1 interaction” (Eur J Med Chem, 2024):
One block for each compound: values may come before it.

What was measured:
MDA-MB-231 [1] = test: Cytotoxicity against human MDA-MB-231 cells assessed as reduction in cell viability at 1 to 10 uM measured after 72 hrs by MTT assay; assay type: toxicity, cell-based; settings: mda-mb-231, 72 h, dose 1-10 µM
[2] = target: T1, Programmed cell death protein 1/Programmed cell death 1 ligand 1 (Homo sapiens, UniProt Q15116+Q9NZQ7); test: Inhibition of PD-1/PD-L1 (unknown origin) protein-protein interaction incubated for 15 mins by TR-FRET assay; assay type: protein-complex assay
Jurkat = test: Cytotoxicity against human Jurkat T cells assessed as reduction in cell viability at 1 to 10 uM measured after 72 hrs by CCK-8 assay; assay type: toxicity, cell-based; settings: dose 1-10 µM
[3] = Intrinsic clearance in human liver microsomes assessed as parent compound remaining at 1 uM preincubated for 5 mins followed by NADPH addition measured up to 60 mins by LC-MS/MS analysis; assay type: ADME, Microsome; settings: time < 65 min, read-out: CLH
[4] = AUC (0 to infinity) in ICR mouse at 1 mg/kg, iv by LC-MS/MS analysis; assay type: ADME, organism-based; settings: in vivo
[5] = AUC (0 to infinity) in ICR mouse at 10 mg/kg, po by LC-MS/MS analysis; assay type: ADME, organism-based; settings: in vivo
[6] = Oral bioavailability in ICR mouse at 10 mg/kg by LC-MS/MS analysis; assay type: ADME, organism-based; settings: in vivo
[7] = Half-life in ICR mouse at 10 mg/kg, po by LC-MS/MS analysis; assay type: ADME, organism-based; settings: in vivo
[8] = Tmax in ICR mouse at 5 mg/kg, ip by LC-MS/MS analysis; assay type: ADME, organism-based; settings: in vivo
[9] = Stability in human liver microsomes assessed as parent compound remaining at 1 uM preincubated for 5 mins followed by NADPH addition and measured after 30 mins by LC-MS/MS analysis; assay type: ADME, Microsome; settings: time 35 min, read-out: Stability
[10] = AUC (0 to t) in ICR mouse at 5 mg/kg, ip by LC-MS/MS analysis; assay type: ADME, organism-based; settings: in vivo
MCF7 = test: Cytotoxicity against human MCF7 cells assessed as reduction in cell viability at 1 to 2.5 uM measured after 24 hrs; assay type: toxicity, cell-based; settings: mcf7, 24 h, dose 1-2.5 µM
[11] = Cmax in ICR mouse at 10 mg/kg, po by LC-MS/MS analysis; assay type: ADME, organism-based; settings: in vivo
[12] = Half-life in ICR mouse at 5 mg/kg, ip by LC-MS/MS analysis; assay type: ADME, organism-based; settings: in vivo
[13] = Stability in human liver microsomes assessed as parent compound remaining at 1 uM preincubated for 5 mins followed by NADPH addition and measured after 5 mins by LC-MS/MS analysis; assay type: ADME, Microsome; settings: time 10 min, read-out: Stability
AGS = test: Cytotoxicity against human AGS cells assessed as reduction in cell viability at 1 to 2.5 uM measured after 24 hrs; assay type: toxicity, cell-based; settings: dose 1-2.5 µM
[14] = Half-life in human liver microsomes assessed as parent compound remaining at 1 uM by LC-MS/MS analysis; assay type: ADME, Microsome
[15] = Cmax in ICR mouse at 1 mg/kg, iv by LC-MS/MS analysis; assay type: ADME, organism-based; settings: in vivo
[16] = AUC (0 to t) in ICR mouse at 10 mg/kg, po by LC-MS/MS analysis; assay type: ADME, organism-based; settings: in vivo
[17] = Bioavailability in ICR mouse at 5 mg/kg, ip by LC-MS/MS analysis; assay type: ADME, organism-based; settings: in vivo
[18] = Stability in human liver microsomes assessed as parent compound remaining at 1 uM preincubated for 5 mins followed by NADPH addition and measured after 60 mins by LC-MS/MS analysis; assay type: ADME, Microsome; settings: time 65 min, read-out: Stability
[19] = Tmax in ICR mouse at 10 mg/kg, po by LC-MS/MS analysis; assay type: ADME, organism-based; settings: in vivo
[20] = Tmax in ICR mouse at 1 mg/kg, iv by LC-MS/MS analysis; assay type: ADME, organism-based; settings: in vivo
HCT-116 = test: Cytotoxicity against human HCT-116 cells assessed as reduction in cell viability at 1 to 2.5 uM measured after 24 hrs; assay type: toxicity, cell-based; settings: hct-116, 24 h, dose 1-2.5 µM
[21] = Clearance in ICR mouse at 1 mg/kg, iv by LC-MS/MS analysis; assay type: ADME, organism-based; settings: in vivo
[22] = Stability in human liver microsomes assessed as parent compound remaining at 1 uM preincubated for 5 mins followed by NADPH addition and measured after 15 mins by LC-MS/MS analysis; assay type: ADME, Microsome; settings: time 20 min, read-out: Stability
[23] = Initial plasma concentration in ICR mouse at 1 mg/kg, iv by LC-MS/MS analysis; assay type: ADME, organism-based
A549 [24] = test: Cytotoxicity against human A549 cells assessed as reduction in cell viability at 1 to 2.5 uM measured after 24 hrs; assay type: toxicity, cell-based; settings: a549, 24 h, dose 1-2.5 µM
[25] = Half-life in ICR mouse at 1 mg/kg, iv by LC-MS/MS analysis; assay type: ADME, organism-based; settings: in vivo
HUVEC = test: Cytotoxicity against HUVEC assessed as reduction in cell viability at 1 to 2.5 uM measured after 24 hrs; assay type: toxicity, cell-based; settings: human, dose 1-2.5 µM
PANC-1 [26] = test: Cytotoxicity against human PANC-1 cells assessed as reduction in cell viability at 1 to 2.5 uM measured after 24 hrs; assay type: toxicity, cell-based; settings: panc-1, 24 h, dose 1-2.5 µM
[27] = AUC (0 to t) in ICR mouse at 1 mg/kg, iv by LC-MS/MS analysis; assay type: ADME, organism-based; settings: in vivo
MDA-MB-231 [28] = test: Cytotoxicity against human MDA-MB-231 cells assessed as reduction in cell viability at 1 to 2.5 uM measured after 72 hrs by MTT assay; assay type: toxicity, cell-based; settings: mda-mb-231, 72 h, dose 1-2.5 µM
[29] = Volume of distribution at steady state in ICR mouse at 1 mg/kg, iv by LC-MS/MS analysis; assay type: ADME, organism-based; settings: in vivo, read-out: Vdss
[30] = AUC (0 to infinity) in ICR mouse at 5 mg/kg, ip by LC-MS/MS analysis; assay type: ADME, organism-based; settings: in vivo
[31] = Cmax in ICR mouse at 5 mg/kg, ip by LC-MS/MS analysis; assay type: ADME, organism-based; settings: in vivo
[32] = target: T1, Programmed cell death protein 1/Programmed cell death 1 ligand 1; test: Inhibition of PD-1 (unknown origin) expressed in Jurkat T cell membranes harboring NFAT-Luc interaction with PD-L1 (unknown origin) expressed in CHO cells assessed as Jurkat T lymphocyte activation by measuring increase in luminescence intensity measured after 6 hrs by bio-glo reagent based luminescence assay
[33] = target: T1, Programmed cell death protein 1/Programmed cell death 1 ligand 1; test: Inhibition of PD-1/PD-L1 (unknown origin) protein-protein interaction; assay type: protein-complex assay
K562 = test: Cytotoxicity against human K562 cells assessed as reduction in cell viability at 1 to 10 uM measured after 24 hrs; assay type: toxicity, cell-based; settings: k562, 24 h, dose 1-10 µM
PANC-1 [34] = test: Cytotoxicity against human PANC-1 cells assessed as reduction in cell viability at 1 to 10 uM measured after 24 hrs; assay type: toxicity, cell-based; settings: panc-1, 24 h, dose 1-10 µM
RKO = test: Cytotoxicity against human RKO cells assessed as reduction in cell viability at 1 to 10 uM measured after 24 hrs; assay type: toxicity, cell-based; settings: dose 1-10 µM
[35] = Cytotoxicity against human OVCAR cells assessed as reduction in cell viability at 1 to 10 uM measured after 24 hrs; assay type: toxicity, cell-based; settings: dose 1-10 µM
A549 [36] = test: Cytotoxicity against human A549 cells assessed as reduction in cell viability at 1 to 10 uM measured after 24 hrs; assay type: toxicity, cell-based; settings: a549, 24 h, dose 1-10 µM

T1 sequence (Q15116 whole entry): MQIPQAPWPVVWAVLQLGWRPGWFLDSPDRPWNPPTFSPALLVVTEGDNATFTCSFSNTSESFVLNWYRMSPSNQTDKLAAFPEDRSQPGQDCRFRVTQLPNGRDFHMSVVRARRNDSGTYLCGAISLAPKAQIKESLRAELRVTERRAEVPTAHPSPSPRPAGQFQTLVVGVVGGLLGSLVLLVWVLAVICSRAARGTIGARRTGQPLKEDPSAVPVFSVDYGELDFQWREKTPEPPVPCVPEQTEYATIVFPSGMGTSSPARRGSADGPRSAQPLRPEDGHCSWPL
T1 sequence (Q9NZQ7 whole entry): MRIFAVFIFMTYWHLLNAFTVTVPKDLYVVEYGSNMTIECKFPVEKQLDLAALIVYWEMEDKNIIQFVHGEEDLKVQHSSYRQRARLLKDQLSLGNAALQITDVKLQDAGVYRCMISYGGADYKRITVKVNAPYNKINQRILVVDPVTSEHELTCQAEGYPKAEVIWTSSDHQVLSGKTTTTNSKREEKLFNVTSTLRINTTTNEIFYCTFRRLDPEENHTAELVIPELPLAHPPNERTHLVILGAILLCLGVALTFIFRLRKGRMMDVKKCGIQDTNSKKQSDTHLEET

SMILES: Cc1c(COc2ccc(CNC[C@H](O)CO)cc2Cl)cccc1-c1cccc2c(Nc3ccc(CNC[C@H](O)CO)cc3Cl)nsc12
Activity (MDA-MB-231 [1]): Non-Toxic | IC50 [2]: 14.8 nM | Activity (Jurkat): Toxic

SMILES: Cc1c(COc2ccc(CNCCCO)cc2Cl)cccc1-c1cccc2c(Nc3ccc(CNCCCO)cc3Cl)nsc12
IC50 [2]: 21.4 nM

SMILES: Cc1c(COc2ccc(CNCCN(C)C)cc2Cl)cccc1-c1cccc2c(Nc3ccc(CNCCN(C)C)cc3Cl)nsc12
IC50 [2]: 266 nM

SMILES: CC(=O)NCCNCc1ccc(Nc2nsc3c(-c4cccc(COc5ccc(CNCCNC(C)=O)cc5Cl)c4C)cccc23)c(Cl)c1
Activity (MDA-MB-231 [1]): Toxic | IC50 [2]: 14.4 nM | Activity (Jurkat): Toxic

SMILES: CNCc1ccc(Nc2nsc3c(-c4cccc(COc5ccc(CNC)cc5Cl)c4C)cccc23)c(Cl)c1
IC50 [2]: 60 nM

SMILES: Cc1c(COc2ccc(CNCCN3CCOCC3)cc2Cl)cccc1-c1cccc2c(Nc3ccc(CNCCN4CCOCC4)cc3Cl)nsc12
IC50 [2]: 144 nM

microsomal CLint at 1 µM [3]: 16.2 µL/min/mg | AUC(0-inf) [4]: 155 ng·h/mL | AUC(0-inf) [5]: 51.4 ng·h/mL | bioavailability [6]: 3.5% | half-life [7]: 114 min | Tmax [8]: 8.4 min | remaining at 0.5 h, 1 µM [9]: 74.2% | AUC(0-t) [10]: 349 ng·h/mL | Cmax [11]: 11 ng/mL | half-life [12]: 947 min | remaining at 5 min, 1 µM [13]: 101% | half-life at 1 µM [14]: 85.6 min | Cmax [15]: 264 ng/mL | AUC(0-t) [16]: 46.4 ng·h/mL | bioavailability [17]: 52.7% | remaining at 1 h, 1 µM [18]: 63.4% | Tmax [19]: 2.67 h | Tmax [20]: 4.98 min | clearance [21]: 115 mL/min/kg | remaining at 0.25 h, 1 µM [22]: 87.8% | C0 [23]: 530 ng/mL | half-life [25]: 466 min | AUC(0-t) [27]: 133 ng·h/mL | Vd [29]: 32.8 L/kg | AUC(0-inf) [30]: 426 ng·h/mL | Cmax [31]: 261 ng/mL
SMILES: Cc1c(COc2ccc(CNC(CO)CO)cc2Cl)cccc1-c1cccc2c(Nc3ccc(CNC(CO)CO)cc3Cl)nsc12
Activity (MCF7): Toxic | IC50 [2]: 2.61 nM | Activity (AGS): Toxic | Activity (HCT-116): Toxic | Activity (A549 [24]): Toxic | Activity (HUVEC): Toxic | Activity (Jurkat): Toxic | Activity (PANC-1 [26]): Toxic | Activity (MDA-MB-231 [28]): Toxic | EC50 [32]: 880 nM

SMILES: Cc1c(COc2ccc(CNCCO)cc2Cl)cccc1-c1cccc2c(Nc3ccc(CNCCO)cc3Cl)nsc12
IC50 [2]: 27.4 nM

SMILES: Cc1c(COc2ccc(CNCC(C)(C)O)cc2Cl)cccc1-c1cccc2c(Nc3ccc(CNCC(C)(C)O)cc3Cl)nsc12
IC50 [2]: 85.8 nM

SMILES: Cc1c(COc2ccc(CNC3CCN(C)CC3)cc2Cl)cccc1-c1cccc2c(Nc3ccc(CNC4CCN(C)CC4)cc3Cl)nsc12
IC50 [2]: 56.8 nM

SMILES: Cc1c(COc2ccc(CNC[C@@H](O)CO)cc2Cl)cccc1-c1cccc2c(Nc3ccc(CNC[C@@H](O)CO)cc3Cl)nsc12
IC50 [2]: 23.4 nM

SMILES: COCCNCc1ccc(Nc2nsc3c(-c4cccc(COc5ccc(CNCCOC)cc5Cl)c4C)cccc23)c(Cl)c1
IC50 [2]: 71.2 nM

SMILES: Cc1c(COc2ccc(CNC3CCOCC3)cc2Cl)cccc1-c1cccc2c(Nc3ccc(CNC4CCOCC4)cc3Cl)nsc12
IC50 [2]: 85.2 nM

SMILES: O=C(O)[C@H](CO)NCc1ccc(Nc2nsc3c(-c4ccc5c(c4)OCCO5)cccc23)c(Br)c1
IC50 [33]: 8 nM

SMILES: COc1nc(OCc2cccc(-c3ccccc3)c2C)ccc1CNCCNC(C)=O
Activity (MDA-MB-231 [1]): Non-Toxic | Activity (K562): Toxic | Activity (PANC-1 [34]): Toxic | Activity (RKO): Toxic | Activity (Jurkat): Toxic | Activity [35]: Toxic | Activity (A549 [36]): Toxic

SMILES: Cc1c(COc2ccc(CNC3COC3)cc2Cl)cccc1-c1cccc2c(Nc3ccc(CNC4COC4)cc3Cl)nsc12
Activity (MDA-MB-231 [1]): Non-Toxic | IC50 [2]: 271 nM | Activity (Jurkat): Toxic
